Data from patent US20260226076A1, “FUSED MULTICYCLIC COMPOUNDS AND THEIR USE AS PARP1 INHIBITORS” (LAEKNA THERAPEUTICS SHANGHAI CO., LTD., priority 2022, published 2026).
Read-outs that look alike come from different tables or passages of the source.

Assays:
[1] = target: PARP1 (Homo sapiens, UniProt P09874); assay: PARP1-DNA enzymatic trapping assay; format: biochemical; conditions: 10 nM PARP1, 5 nM DNA probe, 2 mM NAD+, fluorescence polarization read at 30 minutes
Description: Enzymatic trapping assay is to measure the dissociation process of PARP1 from fluorescein-labeled DNA during the enzymatic activity. Assay was conducted at a total 10 μL of reaction volume, including 10 nM PARP1 and 5 nM DNA probe in the binding buffer (50 mM Tris-HCl pH 8.0, 50 mM NaCl, 1 mM MgCl2, 0.1 mM EDTA, and 0.01% IGEPAL), and was commenced by adding a final concentration of 2 mM NAD+ substrate.
PARP1 Poly-ADP ribosylation (PARylation) inhibitory assay was conducted with compounds dissolved in DMSO at a starting concentration of 5 μM. Dissolved compounds were added to 384-well microplate and premixed with PARPI enzyme and DNA probe for 20 minutes incubation. Enzymatic reactions were started by adding NAD+ to mixture, and each well was read at 30 minutes by microplate reader (VICTOR Nivo®, PerkinElmer) to detect the fluorescence polarization signal at 480 nm excitation/530 nm dual emission.
All measured IC50 values were calculated using four parameters dose-response inhibition model in GraphPad Prism 8.0.2 (La Jolla, California, USA, www.graphpad.com).

[2] = system: MDA-MB-436 cells; assay: Cell proliferation assay (MDA-MB-436); format: cell-based; conditions: at least 7 days, Cell-Titer Glo, read-out: MDA-MB-436 anti-proliferation assay
Description: (§1) For PARPi sensitivity, exponentially growing MDA-MB-436 and DLD1 BRCA2^−/− cells were seed in 96 or 384-well plates at very low density with the goal of not splitting for at least 7 days (typically 0.3k-1.2k cells/well). Cells were plated on […] and treated with DMSO or increasing concentrations of PARP1 inhibitors on Day 0. At the end of the experiment, cell viability was estimated using Cell-Titer Glo (Promega).

[3] = system: DLD1 BRCA2−/− cells; assay: Cell proliferation assay (DLD1 BRCA2−/−); format: cell-based; conditions: at least 7 days, Cell-Titer Glo, read-out: DLD1 BRCA2−/− anti-proliferation assay
Description: as §1

[4] = Homo sapiens, MDA-MB-436, 168 h

Sequence of PARP1 (P09874 whole entry): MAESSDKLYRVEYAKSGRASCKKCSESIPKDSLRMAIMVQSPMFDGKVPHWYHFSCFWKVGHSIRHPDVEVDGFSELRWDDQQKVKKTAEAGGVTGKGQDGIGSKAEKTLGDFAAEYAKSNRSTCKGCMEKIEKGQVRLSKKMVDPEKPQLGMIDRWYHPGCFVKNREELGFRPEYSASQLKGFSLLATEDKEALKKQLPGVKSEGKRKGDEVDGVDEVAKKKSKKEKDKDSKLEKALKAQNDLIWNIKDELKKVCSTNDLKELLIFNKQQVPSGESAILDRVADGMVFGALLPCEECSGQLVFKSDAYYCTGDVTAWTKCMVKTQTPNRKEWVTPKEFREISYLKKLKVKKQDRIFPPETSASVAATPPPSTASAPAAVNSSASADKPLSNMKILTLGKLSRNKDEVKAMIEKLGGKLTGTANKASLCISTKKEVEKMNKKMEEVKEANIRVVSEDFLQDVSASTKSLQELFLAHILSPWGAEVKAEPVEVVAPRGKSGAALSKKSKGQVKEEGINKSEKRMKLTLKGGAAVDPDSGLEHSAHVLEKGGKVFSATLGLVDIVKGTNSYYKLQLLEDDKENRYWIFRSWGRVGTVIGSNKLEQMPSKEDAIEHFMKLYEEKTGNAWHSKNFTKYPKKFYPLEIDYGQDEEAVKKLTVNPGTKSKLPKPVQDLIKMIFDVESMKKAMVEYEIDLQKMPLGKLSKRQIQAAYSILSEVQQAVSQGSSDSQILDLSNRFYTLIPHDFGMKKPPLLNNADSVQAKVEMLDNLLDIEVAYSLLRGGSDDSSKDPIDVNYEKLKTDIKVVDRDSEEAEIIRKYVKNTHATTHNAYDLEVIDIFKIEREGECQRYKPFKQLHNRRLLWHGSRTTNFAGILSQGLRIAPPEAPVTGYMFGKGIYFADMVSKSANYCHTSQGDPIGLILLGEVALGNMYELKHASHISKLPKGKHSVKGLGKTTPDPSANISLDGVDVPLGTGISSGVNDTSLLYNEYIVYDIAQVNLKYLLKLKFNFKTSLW

CCc1cc2cnc(CN3C[C@@H]4CN(c5ccc(C(=O)NC)nc5)C[C@@H]4C3)cc2[nH]c1=O [Compound 39]
IC50 [1]: 9.74 nM
IC50 [2, 4]: 1.39 nM
IC50 ([3]; Homo sapiens, DLD-1, 168 h): 1.22 nM

CCC1Oc2ncc(CN3C[C@H]4CN(c5ccc(C(=O)NC)nc5)C[C@@H]4C3)cc2NC1=O (mixture of isomers) [Compound 5]
IC50 [1]: 111 nM
IC50 [2]: 39.9 nM
IC50 [3]: 18.6 nM

CNC(=O)c1ccc(N2C[C@H]3CN(Cc4cnc5c6c(c(=O)[nH]c5c4)OCCC6)C[C@@H]3C2)c(F)n1 [Compound 81]
IC50 [1]: 7.6 nM
IC50 [2, 4]: 1.05 nM
IC50 ([3]; Homo sapiens, DLD-1, 168 h): 4.66 nM

CNC(=O)c1ccc(N2C[C@H]3CN(Cc4cnc5c6c(c(=O)[nH]c5c4)COC6)C[C@@H]3C2)c(F)n1 [Compound 62]
IC50 [1]: 7.82 nM
IC50 [2, 4]: 1.53 nM
IC50 ([3]; Homo sapiens, DLD-1, 168 h): 5.86 nM

CNC(=O)c1ccc(N2C[C@@H]3CN(Cc4cnc5cc(C)c(=O)[nH]c5c4)C[C@H]3C2)c(C)n1 [Compound 24]
IC50 [1]: > 500 nM
IC50 [2, 4]: 407 nM
IC50 ([3]; Homo sapiens, DLD-1, 168 h): 371 nM

O=C(N[C@@H]1CCOC1)c1ccc(N2C[C@H]3CN(Cc4cc5[nH]c(=O)c6c(c5cn4)CCC6)C[C@@H]3C2)c(F)n1 [Compound 56]
IC50 [1]: 5.17 nM
IC50 [2, 4]: 0.71 nM
IC50 ([3]; Homo sapiens, DLD-1, 168 h): 3.37 nM

CNC(=O)c1ccc(N2C[C@H]3CN(Cc4ccc5c6c(c(=O)[nH]c5c4)OCCC6)C[C@@H]3C2)c(F)n1 [Compound 88]
IC50 [1]: 7.9 nM
IC50 [2, 4]: 1.42 nM
IC50 ([3]; Homo sapiens, DLD-1, 168 h): 4.56 nM

O=C(N[C@@H]1CCOC1)c1ccc(N2C[C@H]3CN(Cc4cnc5c6c(c(=O)[nH]c5c4)CCC6)C[C@@H]3C2)c(F)n1 [Compound 50]
IC50 [1]: 7.86 nM
IC50 [2, 4]: 1.05 nM
IC50 ([3]; Homo sapiens, DLD-1, 168 h): 4.04 nM

O=C(NC1COC1)c1ccc(N2C[C@H]3CN(Cc4ccc5c6c(c(=O)[nH]c5c4)COC6)C[C@@H]3C2)c(F)n1 [Compound 61]
IC50 [1]: 9.14 nM
IC50 [2, 4]: 1.35 nM
IC50 ([3]; Homo sapiens, DLD-1, 168 h): 7.97 nM

CCc1cc2ncc(CN3C[C@@H]4CN(c5ccc(C(=O)NCCOC)nc5F)C[C@H]4C3)cc2[nH]c1=O [Compound 34]
IC50 [1]: 10.5 nM
IC50 [2, 4]: 0.78 nM
IC50 ([3]; Homo sapiens, DLD-1, 168 h): 1.09 nM

COCCNC(=O)c1ccc(N2C[C@H]3CN(Cc4cc5[nH]c(=O)c6c(c5cn4)CCC6)C[C@@H]3C2)c(F)n1 [Compound 55]
IC50 [1]: 6.96 nM
IC50 [2, 4]: 1.24 nM
IC50 ([3]; Homo sapiens, DLD-1, 168 h): 4.66 nM

CNC(=O)c1ccc(N2C[C@H]3CN(Cc4cnc5c(c4)NC(=O)[C@@H]4CCCN54)C[C@@H]3C2)c(F)n1 [Compound 22]
IC50 [1]: 10.9 nM
IC50 [2, 4]: 0.69 nM
IC50 ([3]; Homo sapiens, DLD-1, 168 h): 1.09 nM

O=C(NC1COC1)c1ccc(N2C[C@H]3CN(Cc4ccc5c6c(c(=O)[nH]c5c4)OCCC6)C[C@@H]3C2)c(F)n1 [Compound 89]
IC50 [1]: 4.32 nM
IC50 [2, 4]: 1.08 nM
IC50 ([3]; Homo sapiens, DLD-1, 168 h): 8.28 nM

CNC(=O)c1ccc(N2C[C@@H]3CN(Cc4ccc5nc(C)c(=O)[nH]c5c4F)C[C@H]3C2)cn1 (racemic) [Compound 6]
IC50 [1]: 262 nM
IC50 [2, 4]: 76.1 nM
IC50 ([3]; Homo sapiens, DLD-1, 168 h): 49.3 nM

CNC(=O)c1ccc(N2C[C@H]3CN(Cc4ccc5nc(C)c(=O)[nH]c5c4F)C[C@@H]3C2)c(F)n1 [Compound 10]
IC50 [1]: 20.6 nM
IC50 [2, 4]: 7.84 nM
IC50 ([3]; Homo sapiens, DLD-1, 168 h): 4.92 nM

O=C(N[C@H]1CCOC1)c1ccc(N2C[C@H]3CN(Cc4cnc5c6c(c(=O)[nH]c5c4)CCC6)C[C@@H]3C2)c(F)n1 [Compound 51]
IC50 [1]: 7.36 nM
IC50 [2, 4]: 0.7 nM
IC50 ([3]; Homo sapiens, DLD-1, 168 h): 2.96 nM

CCC1Oc2ncc(CN3C[C@H]4CN(c5ccc(C(=O)NC6CC6)nc5F)C[C@@H]4C3)cc2NC1=O (mixture of isomers) [Compound 18]
IC50 [1]: 27.3 nM
IC50 [2, 4]: 11.4 nM
IC50 ([3]; Homo sapiens, DLD-1, 168 h): 12.7 nM

CNC(=O)c1ccc(N2C[C@@H]3CN(Cc4ccc5c(c4F)NC(=O)C(C)O5)C[C@H]3C2)cn1 (mixture of isomers) [Compound 17]
IC50 [1]: > 500 nM
IC50 [2, 4]: > 500 nM
IC50 ([3]; Homo sapiens, DLD-1, 168 h): 468 nM

O=C(NC1CCOCC1)c1ccc(N2C[C@H]3CN(Cc4cc5[nH]c(=O)c6c(c5cn4)CCC6)C[C@@H]3C2)c(F)n1 [Compound 58]
IC50 [1]: 7.68 nM
IC50 [2, 4]: 2.51 nM
IC50 ([3]; Homo sapiens, DLD-1, 168 h): 12.9 nM

CCc1cc2ncc(CN3C[C@H]4CN(c5ccc(C(=O)NC)nc5F)C[C@@H]4C3)cc2[nH]c1=O (racemic) [Compound 19]
IC50 [1]: 6.13 nM
IC50 [2]: 0.59 nM
IC50 [3]: 0.59 nM

CCc1cc2ncc(CN3C[C@H]4CN(c5ccc(C(=O)NCCOC)nc5)C[C@@H]4C3)cc2[nH]c1=O (racemic) [Compound 26]
IC50 [1]: 5.99 nM
IC50 [2, 4]: 0.69 nM
IC50 ([3]; Homo sapiens, DLD-1, 168 h): 1.6 nM

CNC(=O)c1ccc(N2C[C@@H]3CN(Cc4cnc5c(c4)[nH]c(=O)n4cccc54)C[C@H]3C2)cn1 (racemic) [Compound 12]
IC50 [1]: 17.3 nM
IC50 [2, 4]: 5.03 nM
IC50 ([3]; Homo sapiens, DLD-1, 168 h): 3.68 nM

CO[C@H]1C[C@H](NC(=O)c2ccc(N3C[C@H]4CN(Cc5cnc6c7c(c(=O)[nH]c6c5)COCC7)C[C@@H]4C3)c(F)n2)C1 [Compound 74]
IC50 [1]: 8.26 nM
IC50 [2, 4]: 0.57 nM
IC50 ([3]; Homo sapiens, DLD-1, 168 h): 4.98 nM

O=C(N[C@H]1CCOC1)c1ccc(N2C[C@H]3CN(Cc4cc5[nH]c(=O)c6c(c5cn4)CCC6)C[C@@H]3C2)c(F)n1 [Compound 57]
IC50 [1]: 18.9 nM
IC50 [2, 4]: 1.24 nM
IC50 ([3]; Homo sapiens, DLD-1, 168 h): 8.41 nM

CNC(=O)c1ccc(N2C[C@H]3CN(Cc4ccc5c6c(c(=O)[nH]c5c4)CCOC6)C[C@@H]3C2)cn1 [Compound 78]
IC50 [1]: 26.7 nM
IC50 [2, 4]: 1.41 nM
IC50 ([3]; Homo sapiens, DLD-1, 168 h): 9.14 nM

COCCNC(=O)c1ccc(N2C[C@H]3CN(Cc4cnc5cc(C)c(=O)[nH]c5c4)C[C@@H]3C2)c(F)n1 [Compound 35]
IC50 [1]: 23.7 nM
IC50 [2, 4]: 3 nM
IC50 ([3]; Homo sapiens, DLD-1, 168 h): 4.14 nM

Cc1cc2ncc(CN3C[C@H]4CN(c5ccc(C(=O)NC6CC6)nc5)C[C@@H]4C3)cc2[nH]c1=O (racemic) [Compound 20]
IC50 [1]: 16.6 nM
IC50 [2, 4]: 3.47 nM
IC50 ([3]; Homo sapiens, DLD-1, 168 h): 4.12 nM

CCC1Oc2ncc(CN3C[C@H]4CN(c5ccc(C(=O)NC)nc5)C[C@@H]4C3)cc2NC1=O (mixture of isomers) [Compound 14]
IC50 [1]: 33.1 nM
IC50 [2]: 9.85 nM
IC50 [3]: 5.59 nM

O=C(NC1COC1)c1ccc(N2C[C@H]3CN(Cc4ccc5c6c(c(=O)[nH]c5c4)COCC6)C[C@@H]3C2)c(Cl)n1 [Compound 84]
IC50 [1]: 411 nM

CNC(=O)c1ccc(N2C[C@H]3CN(Cc4cnc5cc(C)c(=O)[nH]c5c4)C[C@@H]3C2)c(F)n1 [Compound 29]
IC50 [1]: 10.9 nM
IC50 [2, 4]: 0.59 nM
IC50 ([3]; Homo sapiens, DLD-1, 168 h): 0.87 nM

CNC(=O)c1ccc(N2C[C@@H]3CN(Cc4cnc5cc(C)c(=O)[nH]c5c4)C[C@H]3C2)c(F)n1 (racemic) [Compound 21]
IC50 [1]: 17.8 nM
IC50 [2, 4]: 1.91 nM
IC50 ([3]; Homo sapiens, DLD-1, 168 h): 1.76 nM

CCc1cc2ncc(CN3C[C@H]4CN(c5ccc(C(=O)NC)nc5)C[C@@H]4C3)cc2[nH]c1=O [Compound 9]
IC50 [1]: 10.8 nM
IC50 [2]: 1.76 nM
IC50 ([3]; Homo sapiens, DLD-1, 168 h): 1.29 nM

CCc1cc2ncc(CN3C[C@@H]4CN(c5ccc(C(=O)NC)nc5)C[C@@H]4C3)cc2[nH]c1=O [Compound 1]
IC50 [1]: 42.9 nM
IC50 [2, 4]: 410 nM
IC50 ([3]; Homo sapiens, DLD-1, 168 h): > 500 nM
